Converted amounts (≈) assume the structure as drawn. Where only a bound is given, the exact number is not on record here.

The first test deals with S. aureus 29213. In words: Bacterial growth minimal inhibitory concentrations (microdilution, cation-adjusted Mueller-Hinton Broth, CLSI M7-A7). Format: cell-based. Particulars: Staphylococcus aureus, 29213; microdilution in cation-adjusted Mueller-Hinton Broth. As for the experimental part:
Bacterial Growth Minimal Inhibitory Concentrations: Minimal inhibitory concentrations (MICs; mg/l) were determined in cation-adjusted MuellerHinton Broth by a microdilution method following the description given in “Methods for Dilution Antimicrobial Susceptibility Tests for Bacteria that Grow Aerobically”, Approved standard, 7th ed., Clinical and Laboratory Standards Institute (CLSI) Document M7-A7, Wayne, Pa., USA, 2006. Typical antibacterial test results are given in Table 1 hereafter (MIC in mg/l).
Background: Broth dilution looks for growth in wells or tubes with falling amounts of substance.
One may read the MIC as the lowest concentration that inhibits growth of the organism. `O=C1COc2ccc(N3C[C@H](CCCn4c(=O)c5cccc6c5n(c4=O)CCC6)OC3=O)nc2N1` [Example 45, 2-{3-[(S)-2-oxo-3-(3-oxo-3,4-dihydro-2H-pyrido[3,2-b][1,4]oxazin-6-yl)-oxazolidin-5-yl]-propyl}-6,7-dihydro-5H-pyrido[3,2,1-ij]quinazoline-1,3-dione] gave an MIC not above 0.016 µg/mL.

In turn, `Cn1c(=O)n(CCC[C@@H]2CN(c3ccc4c(c3)NC(=O)CS4)C(=O)O2)c(=O)c2ccc(Br)cc21` [Example 46, 7-bromo-1-methyl-3-{3-[(R)-2-oxo-3-(3-oxo-3,4-dihydro-2H-benzo[1,4]thiazin-6-yl)-oxazolidin-5-yl]-propyl}-1H-quinazoline-2,4-dione] registered an MIC not above 0.016 µg/mL.

`C=Cc1ccc2c(=O)n(CCC[C@@H]3CN(c4ccc5c(c4)NC(=O)CS5)C(=O)O3)c(=O)n(C)c2c1` [Example 47, 1-methyl-3-{3-[(R)-2-oxo-3-(3-oxo-3,4-dihydro-2H-benzo[1,4]-thiazin-6-yl)-oxazolidin-5-yl]-propyl}-7-vinyl-1H-quinazoline-2,4-dione] yielded an MIC of 0.063 µg/mL (≈ 0.128 µM).

`Cn1c(=O)n(CCCC[C@@H]2CN(c3ccc4c(n3)NC(=O)CS4)C(=O)O2)c(=O)c2ccccc21` [Example 51, 1-methyl-3-{4-[(R)-2-oxo-3-(3-oxo-3,4-dihydro-2H-pyrido[3,2-b][1,4]thiazin-6-yl)-oxazolidin-5-yl]-butyl}-1H-quinazoline-2,4-dione] yielded an MIC not above 0.016 µg/mL.

Compound `Cn1c(=O)n(CCCC[C@@H]2CN(c3ccc4c(n3)NC(=O)CO4)C(=O)O2)c(=O)c2ccccc21` [Example 52, 1-methyl-3-{4-[(R)-2-oxo-3-(3-oxo-3,4-dihydro-2H-pyrido[3,2-b][1,4]oxazin-6-yl)-oxazolidin-5-yl]-butyl}-1H-quinazoline-2,4-dione] returned an MIC of 0.063 µg/mL (≈ 0.135 µM).

`O=C1CSc2ccc(N3C[C@@H](CNCCn4c(=O)[nH]c5ccccc5c4=O)OC3=O)nc2N1` [Example 53, 3-(2-{[(R)-2-oxo-3-(3-oxo-3,4-dihydro-2H-pyrido[3,2-b][1,4]thiazin-6-yl)-oxazolidin-5-ylmethyl]-amino}-ethyl)-1H-quinazoline-2,4-dione] gave an MIC of 0.5 µg/mL (≈ 1.07 µM).

Compound `O=C1CSc2ccc(N3C[C@@H](CNCCn4c(=O)[nH]c5ccccc5c4=O)OC3=O)cc2N1` [Example 54, 3-(2-{[(R)-2-oxo-3-(3-oxo-3,4-dihydro-2H-benzo[1,4]thiazin-6-yl)-oxazolidin-5-ylmethyl]-amino}-ethyl)-1H-quinazoline-2,4-dione] returned an MIC of 1 µg/mL (≈ 2.14 µM).

Turning to `Cn1c(=O)n(CCNC[C@@H]2CN(c3ccc4c(n3)NC(=O)CS4)C(=O)O2)c(=O)c2ccccc21.O=CO` [Example 55, 1-methyl-3-(2-{[(R)-2-oxo-3-(3-oxo-3,4-dihydro-2H-pyrido[3,2-b][1,4]thiazin-6-yl)-oxazolidin-5-ylmethyl]-amino}-ethyl)-1H-quinazoline-2,4-dione formate salt], the MIC was found to be 0.031 µg/mL.

`Cn1c(=O)n(CCNC[C@@H]2CN(c3ccc4c(c3)NC(=O)CS4)C(=O)O2)c(=O)c2ccccc21` [Example 56, 1-methyl-3-(2-{[(R)-2-oxo-3-(3-oxo-3,4-dihydro-2H-benzo[1,4]thiazin-6-yl)-oxazolidin-5-ylmethyl]-amino}-ethyl)-1H-quinazoline-2,4-dione]: inhibition of growth (MIC) required 0.125 µg/mL (≈ 0.26 µM).

`Cc1cccc2c1c(=O)n(CCNC[C@@H]1CN(c3ccc4c(c3)NC(=O)CS4)C(=O)O1)c(=O)n2C` [Example 57, 1,5-dimethyl-3-(2-{[(R)-2-oxo-3-(3-oxo-3,4-dihydro-2H-benzo[1,4]thiazin-6-yl)-oxazolidin-5-ylmethyl]-amino}-ethyl)-1H-quinazoline-2,4-dione] returned an MIC not above 0.016 µg/mL.

For the compound `Cc1cccc2c1c(=O)n(CCNC[C@H]1CN(c3ccc4c(n3)NC(=O)CS4)C(=O)O1)c(=O)n2C` [Example 58, 1,5-dimethyl-3-(2-{[(S)-2-oxo-3-(3-oxo-3,4-dihydro-2H-pyrido[3,2-b][1,4]thiazin-6-yl)-oxazolidin-5-ylmethyl]-amino}-ethyl)-1H-quinazoline-2,4-dione], the MIC is not above 0.016 µg/mL.

In turn, `Cc1cccc2[nH]c(=O)n(CCNC[C@@H]3CN(c4ccc5c(c4)NC(=O)CS5)C(=O)O3)c(=O)c12` [Example 59, 5-methyl-3-(2-{[(R)-2-oxo-3-(3-oxo-3,4-dihydro-2H-benzo[1,4]thiazin-6-yl)-oxazolidin-5-ylmethyl]-amino}-ethyl)-1H-quinazoline-2,4-dione] gave an MIC of 0.25 µg/mL (≈ 0.519 µM).

In turn, `Cc1cccc2c(=O)n(CCNC[C@@H]3CN(c4ccc5c(c4)NC(=O)CS5)C(=O)O3)c(=O)[nH]c12` [Example 60, 8-methyl-3-(2-{[(R)-2-oxo-3-(3-oxo-3,4-dihydro-2H-benzo[1,4]thiazin-6-yl)-oxazolidin-5-ylmethyl]-amino}-ethyl)-1H-quinazoline-2,4-dione] displayed an MIC of 0.25 µg/mL (≈ 0.519 µM).

Compound `Cn1c(=O)n(CCNC[C@@H]2CN(c3ccc4c(c3)NC(=O)CS4)C(=O)O2)c(=O)c2cccc(Cl)c21` [Example 61, 8-chloro-1-methyl-3-(2-{[(R)-2-oxo-3-(3-oxo-3,4-dihydro-2H-benzo[1,4]thiazin-6-yl)-oxazolidin-5-ylmethyl]-amino}-ethyl)-1H-quinazoline-2,4-dione] yielded an MIC not above 0.016 µg/mL.

In the case of `Cn1c(=O)n(CCNC[C@H]2CN(c3ccc4c(n3)NC(=O)CS4)C(=O)O2)c(=O)c2cccc(Cl)c21` [Example 62, 8-chloro-1-methyl-3-(2-{[(S)-2-oxo-3-(3-oxo-3,4-dihydro-2H-pyrido[3,2-b][1,4]thiazin-6-yl)-oxazolidin-5-ylmethyl]-amino}-ethyl)-1H-quinazoline-2,4-dione], the MIC is not above 0.016 µg/mL.

Compound `O=C1CSc2ccc(N3C[C@@H](CNCCn4c(=O)[nH]c5c(Cl)cccc5c4=O)OC3=O)cc2N1` [Example 64, 8-chloro-3-(2-{[(R)-2-oxo-3-(3-oxo-3,4-dihydro-2H-benzo[1,4]thiazin-6-yl)-oxazolidin-5-ylmethyl]-amino}-ethyl)-1H-quinazoline-2,4-dione] showed an MIC of 0.25 µg/mL (≈ 0.498 µM).

Compound `COC(=O)/C=C/c1ccc2c(=O)n(CCNC[C@H]3CN(c4ccc5c(c4)NC(=O)CS5)C(=O)O3)c(=O)n(C)c2c1` [Example 65, (E)-3-[1-methyl-2,4-dioxo-3-(2-{[(S)-2-oxo-3-(3-oxo-3,4-dihydro-2H-benzo[1,4]thiazin-6-yl)-oxazolidin-5-ylmethyl]-amino}-ethyl)-1,2,3,4-tetrahydro-quinazolin-7-yl]-acrylic acid methyl ester] gave an MIC of 0.125 µg/mL (≈ 0.221 µM).

The compound `O=C1CSc2ccc(N3C[C@H](CNCCn4c(=O)c5cccc6c5n(c4=O)CCC6)OC3=O)nc2N1` [Example 67, 2-(2-{[(S)-2-oxo-3-(3-oxo-3,4-dihydro-2H-pyrido[3,2-b][1,4]thiazin-6-yl)-oxazolidin-5-ylmethyl]-amino}-ethyl)-6,7-dihydro-5H-pyrido[3,2,1-ij]quinazoline-1,3-dione] registered an MIC not above 0.016 µg/mL.

`CC(=O)N(CCn1c(=O)c2ccccc2n(C)c1=O)C[C@@H]1CN(c2ccc3c(n2)NC(=O)CS3)C(=O)O1` [Example 68, N-[2-(1-methyl-2,4-dioxo-1,4-dihydro-2H-quinazolin-3-yl)-ethyl]-N-[(R)-2-oxo-3-(3-oxo-3,4-dihydro-2H-pyrido[3,2-b][1,4]thiazin-6-yl)-oxazolidin-5-ylmethyl]-acetamide] returned a minimal inhibitory concentration (MIC) of 0.25 µg/mL (≈ 0.477 µM).

Turning to `Cn1c(=O)n(CCNC[C@H]2CN(c3ccc4c(n3)NC(=O)CO4)C(=O)O2)c(=O)c2cccc(Cl)c21` [Example 69, 8-chloro-1-methyl-3-(2-{[(S)-2-oxo-3-(3-oxo-3,4-dihydro-2H-pyrido[3,2-b][1,4]oxazin-6-yl)-oxazolidin-5-ylmethyl]-amino}-ethyl)-1H-quinazoline-2,4-dione], the MIC came to 0.031 µg/mL (≈ 0.0619 µM).

The same test, now with this note: microdilution in cation-adjusted Mueller-Hinton Broth.
With `O=C1CSc2ccc(N3C[C@@H](CNCCn4c(=O)c5cccc6c5n(c4=O)CCC6)OC3=O)cc2N1` [Example 66, 2-(2-{[(R)-2-oxo-3-(3-oxo-3,4-dihydro-2H-benzo[1,4]thiazin-6-yl)-oxazolidin-5-ylmethyl]-amino}-ethyl)-6,7-dihydro-5H-pyrido[3,2,1-#]quinazoline-1,3-dione], the “MIC for S. aureus 29213” value stood at 0.031 µg/mL.

Source of the values: patent US8916573B2, “Quinazoline-2,4-dione derivatives” (Actelion Pharmaceuticals Ltd., priority 2011, dated 2014).
